Measured values: patent publication US11524945B2, “Compounds for treating ILK-mediated diseases” (The Cleveland Clinic Foundation, priority 2018, dated 2022)
Values after ≈ are worked out from the molar mass of the structure shown. Read-outs that look alike come from different tables or passages of the source.

How the values were obtained:
CYP 2A6 = CYP 2A6 (Homo sapiens (Human), UniProt P11509); assay: CYP inhibition in human liver microsomes, 2A6; type: in vitro ADME
purified recombinant ILK = purified recombinant ILK (Homo sapiens (Human), UniProt Q13418); assay: ILK binding affinity, EnSpire fluorescence intensity; settings: for binding to purified ILK: fluorescence-based method; for Binding Difference ILK (Kd)/EGFR (Kd) / Kd: EnSpire fluorescence intensity; for Kd: read-out: ILK - Binding affinity
Stability in SIF = type: physicochemical
[1] = Stability in PBS at pH 7.4; type: physicochemical
ILK = ILK (Homo sapiens (Human), UniProt Q13418); assay: ILK binding affinity, Nanotemper
EGFR = EGFR (Homo sapiens (Human), UniProt P00533); assay: EGFR binding affinity, Nanotemper
HepG2 cells = assay: Mitochondrial toxicity in HepG2 cells; type: cell-based; settings: HepG2 cells; for Fold change in IC50: Glucose vs Galactose; for IC50: Homo sapiens
[2] = Permeability in Caco2 cell line; type: in vitro ADME; settings: human; for efflux ratio / Papp A→B / Papp B→A: Caco-2; for efflux ratio: Caco2; for Papp A→B: Caco2, A-B; for Papp B→A: Caco2, B-A
[3] = Protein binding in mouse plasma; type: in vitro ADME
[4] = Protein binding in human plasma; type: in vitro ADME
[5] = Protein binding in rat plasma; type: in vitro ADME
Stability in rat plasma = type: in vitro ADME
[6] = Solubility in PBS at pH 7.4; type: physicochemical; settings: aqueous buffer
[7] = Stability in human plasma; type: in vitro ADME
[8] = Stability in mouse plasma; type: in vitro ADME
CYP 2C8 = CYP 2C8 (Homo sapiens (Human), UniProt P10632); assay: CYP inhibition in human liver microsomes, 2C8; type: in vitro ADME
[9] = Nanotemper, read-out: ILK - Binding affinity
[10] = Nanotemper, read-out: EGFR - Binding affinity
[11] = Galactose, read-out: IC50 (μM)_Galactose
[12] = Glucose, read-out: IC50 (μM)_Glucose
[13] = Caco-2, Caco2, AP-BL, read-out: Recovery (%)AP-BL
[14] = Caco-2, Caco2, BL-AP, read-out: Recovery (%)BL-AP

ILK, sequence (Q13418 whole entry): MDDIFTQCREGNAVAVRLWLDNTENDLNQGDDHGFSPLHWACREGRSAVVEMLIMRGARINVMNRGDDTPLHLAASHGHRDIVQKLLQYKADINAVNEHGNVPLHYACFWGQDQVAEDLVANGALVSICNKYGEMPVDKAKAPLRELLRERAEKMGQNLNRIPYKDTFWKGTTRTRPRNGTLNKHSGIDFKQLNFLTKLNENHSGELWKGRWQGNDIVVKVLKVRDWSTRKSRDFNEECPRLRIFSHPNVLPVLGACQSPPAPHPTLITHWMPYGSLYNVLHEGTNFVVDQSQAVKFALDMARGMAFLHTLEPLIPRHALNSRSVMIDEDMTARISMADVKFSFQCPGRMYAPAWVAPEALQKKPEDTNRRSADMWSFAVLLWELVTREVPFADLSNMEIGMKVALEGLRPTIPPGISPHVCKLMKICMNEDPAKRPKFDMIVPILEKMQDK
purified recombinant ILK, sequence (Q13418 whole entry): as above
EGFR, sequence (P00533 25-1210): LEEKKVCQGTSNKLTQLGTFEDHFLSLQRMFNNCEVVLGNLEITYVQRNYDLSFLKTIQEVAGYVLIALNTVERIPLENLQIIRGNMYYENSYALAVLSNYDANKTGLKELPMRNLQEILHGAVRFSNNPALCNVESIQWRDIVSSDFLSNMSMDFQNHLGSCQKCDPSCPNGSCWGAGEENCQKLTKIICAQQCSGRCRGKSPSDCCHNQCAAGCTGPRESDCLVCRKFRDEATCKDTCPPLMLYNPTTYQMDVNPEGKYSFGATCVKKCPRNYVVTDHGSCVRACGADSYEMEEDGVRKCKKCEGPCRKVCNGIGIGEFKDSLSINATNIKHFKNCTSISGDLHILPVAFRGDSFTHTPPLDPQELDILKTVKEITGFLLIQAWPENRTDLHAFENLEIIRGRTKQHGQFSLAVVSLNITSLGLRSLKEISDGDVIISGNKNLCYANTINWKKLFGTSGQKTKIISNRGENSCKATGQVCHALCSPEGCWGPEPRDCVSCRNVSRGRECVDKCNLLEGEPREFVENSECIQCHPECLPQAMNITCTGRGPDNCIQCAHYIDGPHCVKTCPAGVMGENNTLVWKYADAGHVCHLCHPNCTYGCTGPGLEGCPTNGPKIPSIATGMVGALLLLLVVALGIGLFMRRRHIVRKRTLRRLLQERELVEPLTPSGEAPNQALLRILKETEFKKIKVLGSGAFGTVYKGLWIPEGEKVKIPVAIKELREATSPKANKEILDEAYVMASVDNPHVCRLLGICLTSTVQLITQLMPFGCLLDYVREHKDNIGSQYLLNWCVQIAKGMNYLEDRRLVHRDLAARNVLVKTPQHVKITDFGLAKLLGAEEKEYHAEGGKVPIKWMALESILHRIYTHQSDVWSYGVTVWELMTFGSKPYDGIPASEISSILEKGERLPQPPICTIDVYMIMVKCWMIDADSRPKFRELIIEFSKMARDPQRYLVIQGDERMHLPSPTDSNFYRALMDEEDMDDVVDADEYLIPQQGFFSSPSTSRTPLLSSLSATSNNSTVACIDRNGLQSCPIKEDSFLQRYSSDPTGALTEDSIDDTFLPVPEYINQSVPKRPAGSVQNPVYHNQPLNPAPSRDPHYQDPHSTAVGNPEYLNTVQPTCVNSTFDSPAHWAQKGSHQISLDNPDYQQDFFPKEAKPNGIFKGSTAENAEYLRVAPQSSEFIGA
CYP 2A6, sequence (P11509 whole entry): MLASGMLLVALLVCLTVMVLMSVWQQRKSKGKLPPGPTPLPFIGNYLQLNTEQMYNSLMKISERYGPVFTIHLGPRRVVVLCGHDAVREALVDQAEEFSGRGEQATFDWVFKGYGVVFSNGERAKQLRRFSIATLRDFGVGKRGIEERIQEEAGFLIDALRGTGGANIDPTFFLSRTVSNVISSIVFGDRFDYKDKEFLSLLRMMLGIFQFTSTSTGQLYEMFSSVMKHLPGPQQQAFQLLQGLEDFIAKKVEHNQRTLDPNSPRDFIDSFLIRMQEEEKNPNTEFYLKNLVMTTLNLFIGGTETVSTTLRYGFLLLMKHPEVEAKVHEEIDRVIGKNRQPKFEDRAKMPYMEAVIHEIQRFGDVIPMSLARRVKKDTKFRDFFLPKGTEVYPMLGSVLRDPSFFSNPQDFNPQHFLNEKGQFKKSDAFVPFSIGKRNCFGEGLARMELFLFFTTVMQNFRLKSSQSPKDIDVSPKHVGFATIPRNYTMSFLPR
CYP 2C8, sequence (P10632 whole entry): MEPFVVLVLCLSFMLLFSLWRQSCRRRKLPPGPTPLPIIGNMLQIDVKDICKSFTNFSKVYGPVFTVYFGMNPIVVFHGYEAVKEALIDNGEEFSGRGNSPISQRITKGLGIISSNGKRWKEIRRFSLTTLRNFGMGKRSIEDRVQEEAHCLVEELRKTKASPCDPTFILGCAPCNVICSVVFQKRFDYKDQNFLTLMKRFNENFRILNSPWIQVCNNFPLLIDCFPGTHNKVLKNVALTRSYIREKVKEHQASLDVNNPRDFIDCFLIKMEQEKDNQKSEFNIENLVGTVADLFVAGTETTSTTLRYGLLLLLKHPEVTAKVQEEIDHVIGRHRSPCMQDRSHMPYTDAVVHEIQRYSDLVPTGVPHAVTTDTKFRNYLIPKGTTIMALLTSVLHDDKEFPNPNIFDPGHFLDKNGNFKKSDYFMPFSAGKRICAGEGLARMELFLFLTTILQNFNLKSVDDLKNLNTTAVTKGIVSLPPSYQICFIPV

For `N[C@@H]1C[C@H]1c1ccccc1` (racemic) [Tranylcypromine, reference compound], the IC50 (CYP 2A6) was 0.69 µM.
With `CN1Cc2c(ccc3c2OCO3)C2C(O)Cc3cc4c(cc3C21)OCO4` (stereo not drawn) [Chelidonine, reference compound] the “binding to purified ILK” value (purified recombinant ILK) was “no detectable binding”.
With `O=C(O)CCCc1ccc(N(CCCl)CCCl)cc1` [Chlorambucil, reference compound] the “Remaining Percentage (%)” value (Stability in SIF; 0 min) was 100.00%, the “Remaining Percentage (%)” value (Stability in SIF; 30 min) was 58.85% and the “Remaining Percentage (%)” value (Stability in SIF; 60 min) was 33.12%. The “Remaining Percentage (%)” value (Stability in SIF; 120 min) was 8.26%, the “Remaining Percentage (%)” value (Stability in SIF; 180 min) was 2.57% and the “Remaining Percentage (%)” value (Stability in SIF; 240 min) was 0.79%. The “Remaining Percentage (%)” value ([1]; PBS pH 7.4, 0 min) was 100.00%, the “Remaining Percentage (%)” value ([1]; PBS pH 7.4, 30 min) was 37.17% and the “Remaining Percentage (%)” value ([1]; PBS pH 7.4, 60 min) was 11.53%. For the same molecule, the “Remaining Percentage (%)” value ([1]; PBS pH 7.4, 120 min) was 2.35%, the “Remaining Percentage (%)” value ([1]; PBS pH 7.4, 180 min) was 0.09% and the “Remaining Percentage (%)” value ([1]; PBS pH 7.4, 240 min) was 0.03%.
For `C#Cc1cc(Nc2ncnc3cc(OCCOC)ccc23)cc(OCCOC)c1` [Compound 1 New], the “Binding Difference ILK (Kd)/EGFR (Kd)” value (ILK; Nanotemper) was 0.5414, the Kd (ILK; [9]) was 6.85 µM and the Kd (EGFR; [10]) was 12.7 µM.
For `C#Cc1cc(C#C)cc(Nc2ncnc3cc(OC)c(OC)cc23)c1` [Compound 4], the “Binding Difference ILK (Kd)/EGFR (Kd)” value (purified recombinant ILK) was 1.34 and the Kd (purified recombinant ILK) was 1.54 µM.
`C#Cc1cc(Nc2ncnc3cc(OCCOC)c(OCCOC)cc23)cc(OCCOC)c1` [Compound 7] gave a Kd (ILK; [9]) of 2.44 µM.
With `C#Cc1cc(Nc2ncnc3cc(OCCOC)c(OCCOC)cc23)cc(OCCOCC)c1` [Compound 8] the “Binding Difference ILK (Kd)/EGFR (Kd)” value (ILK; Nanotemper) was 0.1043, the Kd (ILK; Nanotemper (Table 1), read-out: KD to ILK) was ~0.92 µM and the Kd (ILK; [9]) was 0.922 µM. For the same molecule, the Kd (EGFR; Nanotemper (Table 1), read-out: KD to EGFR) was ~8.84 µM and the Kd (EGFR; [10]) was 8.84 µM.
For `CNC(=O)CCc1cc(-c2ccc(-c3ccc(C(F)(F)F)cc3)cc2)n(-c2ccc(N3CCNCC3)cc2)n1` [Compound 22, reference compound], the “binding to purified ILK” value (purified recombinant ILK) was “no detectable binding”.
In the case of `C[C@@H]1CC[C@@]2(OC1)O[C@H]1[C@@H](O)[C@H]3[C@@H]4CC[C@H]5C[C@@H](O[C@@H]6O[C@H](CO)[C@H](O[C@@H]7O[C@H](CO)[C@@H](O)[C@H](O[C@@H]8OC[C@@H](O)[C@H](O)[C@H]8O)[C@H]7O[C@@H]7O[C@H](CO)[C@H](O)[C@H](O[C@@H]8O[C@H](CO)[C@@H](O)[C@H](O)[C@H]8O)[C@H]7O)[C@H](O)[C@H]6O)[C@H](O)C[C@]5(C)[C@H]4CC[C@]3(C)[C@H]1[C@@H]2C` [Digitonin], the “Fold change in IC50” value (HepG2 cells) is reported as 2.40, the IC50 (HepG2 cells; [11]) is reported as 1.79 µM and the IC50 (HepG2 cells; [12]) is reported as 4.3 µM.
`C[C@H]1O[C@@H](O[C@H]2[C@@H](O)C[C@H](O[C@H]3[C@@H](O)C[C@H](O[C@H]4CC[C@@]5(C)[C@H](CC[C@@H]6[C@@H]5C[C@@H](O)[C@]5(C)[C@@H](C7=CC(=O)OC7)CC[C@]65O)C4)O[C@@H]3C)O[C@@H]2C)C[C@H](O)[C@@H]1O` [Digoxin] gave a recovery [2, 13] of 87.9%, a recovery [2, 14] of 96.5% and an efflux ratio [2] of 27. For the same molecule, the Papp A→B [2] was 0.61 ×10⁻⁶ cm/s and the Papp B→A [2] was 16.6 ×10⁻⁶ cm/s.
For `C#Cc1cc(Nc2ncnc3cc(OCCOC)c(OCCOC)cc23)ccc1C` [Erlotinib-4-methylphenyl analog (E4ME)], the “Binding Difference ILK (Kd)/EGFR (Kd)” value (purified recombinant ILK) was 2.075 and the Kd (purified recombinant ILK) was 1.55 µM.
For `CC(=O)N1CCN(c2ccc(OCC3COC(Cn4ccnc4)(c4ccc(Cl)cc4Cl)O3)cc2)CC1` (stereo not drawn) [Ketoconazole, reference compound], the “% Bound” value [3] was 99.33%, the “% Recovery” value [3] was 104.25% and the “% Bound” value [4] was 98.33%. For the same molecule, the “% Recovery” value [4] was 101.01%, the “% Bound” value [5] was 99.63% and the “% Recovery” value [5] was 100.83%.
In the case of `CC[C@H](C)C(=O)O[C@H]1C[C@@H](C)C=C2C=C[C@H](C)[C@H](CC[C@@H]3C[C@@H](O)CC(=O)O3)[C@H]21` [Mevinolin, reference compound], the “Remaining Percentage (%)” value (Stability in rat plasma; 0 min) is reported as 100.00%, the “Remaining Percentage (%)” value (Stability in rat plasma; 15 min) is reported as 3.78% and the “Remaining Percentage (%)” value (Stability in rat plasma; 30 min) is reported as 0.00%. For the same molecule, the “Remaining Percentage (%)” value (Stability in rat plasma; 45 min) was 0.00%, the “Remaining Percentage (%)” value (Stability in rat plasma; 60 min) was 0.00% and the “Remaining Percentage (%)” value (Stability in rat plasma; 120 min) was 0.00%.
In the case of `CCc1nn(CCCN2CCN(c3cccc(Cl)c3)CC2)c(=O)n1CCOc1ccccc1` [Nefazodone], the “Fold change in IC50” value (HepG2 cells) is reported as 11.33, the IC50 (HepG2 cells; [11]) is reported as 6.82 µM and the IC50 (HepG2 cells; [12]) is reported as 77.2 µM.
For `COc1cc2nc(N3CCN(C(=O)c4ccco4)CC3)nc(N)c2cc1OC` [Prazosin], the recovery [2, 13] was 85.1%, the recovery [2, 14] was 99% and the efflux ratio [2] was 2.41. The Papp B→A [2] was 30.1 ×10⁻⁶ cm/s.
`CC(=O)[C@H]1CC[C@H]2[C@@H]3CCC4=CC(=O)CC[C@]4(C)[C@H]3CC[C@]12C` [Progesterone, reference compound] showed a solubility [6] of 13.9 µM (≈ 4.36 µg/mL).
With `CC(C)[N+](C)(CCOC(=O)C1c2ccccc2Oc2ccccc21)C(C)C` [Propantheline, reference compound] the “Remaining Percentage (%)” value ([7]; 0 min) was 100.00%, the “Remaining Percentage (%)” value ([7]; 15 min) was 54.01% and the “Remaining Percentage (%)” value ([7]; 30 min) was 26.58%. For the same molecule, the “Remaining Percentage (%)” value ([7]; 45 min) was 9.84%, the “Remaining Percentage (%)” value ([7]; 60 min) was 3.10% and the “Remaining Percentage (%)” value ([7]; 120 min) was 0.13%. For the same molecule, the “Remaining Percentage (%)” value ([8]; 0 min) was 100.00%, the “Remaining Percentage (%)” value ([8]; 15 min) was 74.15% and the “Remaining Percentage (%)” value ([8]; 30 min) was 64.03%. The “Remaining Percentage (%)” value ([8]; 45 min) was 48.07%, the “Remaining Percentage (%)” value ([8]; 60 min) was 37.61% and the “Remaining Percentage (%)” value ([8]; 120 min) was 14.60%.
Molecule `CC(C)NCC(O)COc1cccc2ccccc12` (stereo not drawn) [Propranolol] has a recovery [2, 13] of 60.8%, a recovery [2, 14] of 80% and an efflux ratio [2] of 0.82. The Papp A→B [2] was 19.5 ×10⁻⁶ cm/s and the Papp B→A [2] was 15.9 ×10⁻⁶ cm/s.
For `CC1=NN(C(=O)CC(=O)Nc2ccc(C)cc2)C(=O)C1/N=N/c1cccc(C(=O)O)c1` (stereo not drawn) [QLT0267-like compound (QLT0267), reference compound], the “binding to purified ILK” value (purified recombinant ILK) was “no detectable binding”.
In the case of `C=C[C@H]1C[N@@]2CC[C@H]1C[C@@H]2[C@@H](O)c1ccnc2ccc(OC)cc12` [Quinidine, reference compound], the IC50 (CYP 2C8) is reported as 3.72 µM.
